Results: US10662204B2 (PFIZER INC., priority 2018, dated 2020)

What was measured:
KRAS G12C = KRAS G12C (Homo sapiens, UniProt P01116, G12C); test: Cell Activity Assay: accumulation of GDP-bound KRAS G12C in MIAPaCa-2 cells (Raf-1 RBD capture, MSD readout); format: cell-based; parameters: endogenous in cells; host or cells: MIAPaCa-2; details: 6 hours, assay limit is 30.00
Description: Compounds presented in the present invention lead to the accumulation of the GDP bound Ras upon treatment of human cancer cell line.
The accumulation of the GDP-bound KRAS G12C in cellular environment was measured based on the principle that KRAS G12C only binds to its downstream kinase; Raf-1 (MAP Kinase Kinase Kinase), when in its active-GTP bound state. In this state, Ras binded to a domain of Raf-1 kinase referred to as the Ras Binding Domain (RBD).
MIAPaCa-2 cells were grown in RPMI 1640 medium (Gibco 11875) supplemented with 10% fetal bovine serum and 1% penicillin/streptomycin. Cells were seeded in 96-well tissue culture plates at a density of 30,000 cells/well and allowed to attach for 16-24 hours. Test compounds were prepared as a 10 mM stock in DMSO and serially diluted in 100% DMSO using a 3-fold dilution scheme. An intermediate 5× concentrated plate in complete growth medium was made and 25 μl/well was added to the 100 μl of cells for a final concentration of 0.3% DMSO. Each concentration of exemplary compound was tested in duplicate. The negative control wells were cells with control inhibitor at 10 μM, and the positive control wells were cells without drugs, DMSO only. Plates were incubated for 6 hours at 37° C., 5% CO2. Following treatment, cells were washed 3× with ice-cold PBS and 115 μl/well ice-cold 1× Assay/Lysis. Buffer with protease inhibitors was added (25 mM HEPES, pH 7.5, 150 mM NaCl, 1% NP-40, 10 mM MgCl2, 1 mM EDTA, 2% Glycerol). Following lysis samples were frozen at −80° C.
Raf-1 RBD (LJIC-1988A1) was diluted to 100 ng/well in PBS and 5 μl/well was spot coated onto MSD high bind SECTOR plates (L15XB). Plates were incubated at room temperature for 1 hour on an orbital shaker. Plates were washed with PBS/0.05% Tween-20 and 50 μl/well of thawed lysate samples were added, followed by 50 μl of 1% MSD Blocker A in PBS/0.05 Tween-20 (R93BA). Plates were incubated for 1 hour on an orbital shaker and washed with PBS/0.05% Tween-20. 25 μl/well of Anti-pan-Ras Antibody (Cell Biolabs 244003) diluted 1:3000 was added in 1% MSD Blocker A solution and plates were incubated for 1 hour on an orbital shaker and washed with PBS/0.05% Tween-20. SULFO-TAG goat anti-mouse secondary antibody (MSD R32AC) was diluted 1:500 in MSD Blocker A solution and added at 25 μL/well. Plates were incubated for 1 hour on an orbital shaker and washed with PBS/0.05% Tween-20. 150 μl/well of Read Buffer T (MSD R92TC) diluted 1:3 in H2O was added and plates were read on a Meso Scale Discovery Sector Imager S600.
KRAS signal was normalized to maximum inhibition and DMSO control values, and IC50 values were generated using a 4 parameter fit of the dose response curve. The decrease in IC50 reflects that the exemplary compound lead to a higher level of accumulation of GDP-bound KRAS G12C than another exemplary compounds at specific timepoint of treatment of cancer cell line.

[1] = target: T1, GDP-loaded KRAS (1-169) G12C, C51S, C80L, C118S (Homo sapiens, UniProt P01116, C118S/C51S/C80L/G12C); test: Mass Spectrometry Reactivity Assay (MSRA): covalent adduct of compound and KRAS G12C, Percent Modification; format: binding
T1 construct: GDP-loaded KRAS (1-169) G12C, C51S, C80L, C118S
Description: Mass Spectrometry Reactivity Assay (MSRA)
Compounds presented in the present invention covalently bind to KRAS G12C using MSRA to detect a covalent adduct of the exemplary compound and KRAS G12C.
GDP-loaded KRAS (1-169) G12C, C51S, C80L, C118S were diluted in the protein assay buffer 25 mM Hepes pH7.5, 200 mM NaCl, 5% glycerol to concentration of 5 μM and 20 μl of protein was transferred into 96-well plate. Initial compound stocks were generated at concentrations 100-fold higher that their desired assay concentrations. See K-Ras(G12C) inhibitors allosterically control GTP affinity and effector interactions; Ostrem J M, Peters U, Sos M L, Wells J A, Shokat K M; Nature. 2013, Nov. 28; 503(7477):548-51.
Exemplary compounds dissolved in DMSO were diluted 100-fold into solution containing 20 μl of 5 μM KRAS protein in the 96-well plate to initiate the reaction. Mosquito (TPP Lab tech) liquid handling robot was used to add compounds to protein solution. Typical final concentration of the compounds was 5 μM or 10 μM. The plates were placed on a shaker for 1 min at RT, sealed and incubated at room temperature for specified time period. 5 μl of reaction mix was added to 10 μl of 0.2% formic acid stop solution and mixed well. Typical end points were 1, 15, 30, and 60 min.
Data were collected using Waters Acquity H-class UPLC system/Xevo G2-XS TOF mass spectrometer. The protein was injected in their liquid phase onto a Bruker Microtrap protein column TR1/15109/03. The following buffers were used to set LC gradient: Buffer A: 0.2% formic acid H2O; B: 0.2% formic acid CAN. The protein was eluted from the column using the following LC Gradient: 0-0.4 min, 10% B to 30% B; 0.4 min-2.4 min, to 90% B, 2.5 min, 10% B, 3 min, 10% B. Initial data analysis was performed using MaxEnt software right after data acquisition.
The standard auto processing function was used to define percentage of unmodified and modified KRAS protein using MexEnt software right after data acquisition. The highest peak was defined as 100% while smaller peak as assigned the number defined by autoprocessing function. The percent of modification corresponding to modified with exemplary compound and unmodified KRAS GDP-loaded KRAS (1-169) G12C, C51S, C80L, C118S were exported to Xcel data analysis software.
The percent of modified protein at the defined concentration of exemplary compound was calculated using the following formula: % mod=Num of modified peak/Sum of modified+unmodified. The resultant value defined as Percent Modification (PM) and an increase in PM reflects that the specific compound is better than other compounds at specified compound concentration at a given time point.

SMILES | IC50 (KRAS G12C) [µM] | MSRA (% modification) 10 μM 0.50 hr ([1]; 10 μM compound) [%] | MSRA (% modification) 5.0 μM 0.017 hr ([1]; 5.0 μM compound) [%] | also measured
C=CC(=O)N1CCN(c2nc(OC[C@@]3(F)CCN(C)C3)nc3c(Oc4c(Cl)c(F)cc5[nH]ncc45)nccc23)CC1 [Example 15H, 1-[4-(8-[(5-chloro-6-fluoro-1H-indazol-4-yl)oxy]-2-{[(3R)-3-fluoro-1-methylpyrrolidin-3-yl]methoxy}pyrido[3,4-d]pyrimidin-4-yl)piperazin-1-yl]prop-2-en-1-one] | 0.461 | – | – | MSRA (% modification) 5.0 μM 0.25 hr ([1]; 5.0 μM compound, 0.25 hr): 25%; MSRA (% modification) 10 μM 0.25 hr ([1]; 10 μM compound, 0.25 hr): 54%
C=CC(=O)N1CCN(c2nc(N3CC[C@@H](N(C)C)C3)nc3c(Oc4c(C)ccc5[nH]ncc45)cccc23)CC1 [Example 09E, 1-(4-{2-[(3R)-3-(dimethylamino)pyrrolidin-1-yl]-8-[(5-methyl-1H-indazol-4-yl)oxy]quinazolin-4-yl}piperazin-1-yl)prop-2-en-1-one] | 7.4 | 24 | – | –
C=CC(=O)N1CCN(c2ncnc3c(Oc4c(Cl)c(F)cc5[nH]ncc45)nccc23)C[C@@H]1C [Example 26A, 1-[(2S)-4-{8-[(5-chloro-6-fluoro-1H-indazol-4-yl)oxy]pyrido[3,4-d]pyrimidin-4-yl}-2-methylpiperazin-1-yl]prop-2-en-1-one] | 27.6 | 14 | – | –
C=CC(=O)N1CCN(c2ncnc3c(Oc4c(C)ccc5[nH]ncc45)cc(C#N)cc23)CC1 [Example 14C] | 27.8 | 20 | – | –
C=CC(=O)N1CCN(c2ncnc3c(Oc4c(C)c(Cl)cc5[nH]ncc45)nc(Cl)cc23)CC1 [Example 31A, 1-(4-{6-chloro-8-[(6-chloro-5-methyl-1H-indazol-4-yl)oxy]pyrido[3,4-d]pyrimidin-4-yl}piperazin-1-yl)prop-2-en-1-one] | 0.171 | 79 | – | –
C=CC(=O)N1CCN(c2nc(O[C@@H]3CN(C)C[C@H]3OC)nc3c(Oc4c(Cl)c(F)cc5[nH]ncc45)nccc23)C[C@@H]1C [Example 37I, 1-[(2S)-4-(8-[(5-chloro-6-fluoro-1H-indazol-4-yl)oxy]-2-{[(3R,4R)-4-methoxy-1-methyl-pyrrolidin-3-yl]oxy}pyrido [3,4-d]pyrimidin-4-yl)-2-methyl-piperazin-1-yl]prop-2-en-1-one] | – | – | 16 | –
C=CC(=O)N1CCN(c2nc(O[C@@H]3CCN(CCOC)C[C@H]3C)nc3c(Oc4c(Cl)c(F)cc5[nH]ncc45)nccc23)CC1 (racemic) [Example 27I, rac-1-[4-(8-[(5-chloro-6-fluoro-1H-indazol-4-yl)oxy]-2-{[(3R,4R)-1-(2-methoxy-ethyl)-3-methyl-piperidin-4-yl]oxy}pyrido [3,4-d]pyrimidin-4-yl)piperazin-1-yl]prop-2-en-1-one] | – | – | 15 | –
C=CC(=O)N1CCN(c2ncnc3c(Oc4c(Br)ccc5[nH]ncc45)nccc23)CC1 [Example 15C, 1-(4-{8-[(5-bromo-1H-indazol-4-yl)oxy]pyrido[3,4-d]pyrimidin-4-yl}piperazin-1-yl)prop-2-en-1-one] | – | 12 | – | –
C=CC(=O)N1CCN(c2nc(O[C@H]3CN(C)C[C@H]3C)nc3c(Oc4c(Cl)c(F)cc5[nH]ncc45)nccc23)CC1 (racemic) [Example 25I, rac-1-[4-(8-[(5-chloro-6-fluoro-1H-indazol-4-yl)oxy]-2-{[(3S,4S)-1,4-dimethyl-pyrrolidin-3-yl]oxy}pyrido [3,4-d]pyrimidin-4-yl)piperazin-1-yl]prop-2-en-1-one] | – | – | 6 | –
C=CC(=O)N1CCN(c2ncnc3c(Oc4c(Br)ccc5[nH]ncc45)cccc23)CC1 [Example 11C, 1-(4-(8-((5-bromo-1H-indazol-4-yl)oxy)quinazolin-4-yl)piperazin-1-yl)prop-2-en-1-one] | – | 26 | – | –
C=CC(=O)N1CCN(c2nc(OC3CN(C)CC34CC4)nc3c(Oc4c(Cl)c(F)cc5[nH]ncc45)nccc23)CC1 (stereo not drawn) [Example 26I, 1-(4-{8-[(5-chloro-6-fluoro-1H-indazol-4-yl)oxy]-2-[(5-methyl-5-azaspiro [2.4]heptan-7-yl)oxy]pyrido [3,4-d]pyrimidin-4-yl}piperazin-1-yl)prop-2-en-1-one] | – | – | 17 | –
C=CC(=O)N1CCN(c2nc(O[C@@H]3CN(C)C[C@H]3C)nc3c(Oc4c(Cl)c(F)cc5[nH]ncc45)nccc23)CC1 (racemic) [Example 24I, rac-1-[4-(8-[(5-chloro-6-fluoro-1H-indazol-4-yl)oxy]-2-{[(3S,4R)-1,4-dimethyl-pyrrolidin-3-yl]oxy}pyrido [3,4-d]pyrimidin-4-yl)piperazin-1-yl]prop-2-en-1-one] | – | – | 20 | –
C=CC(=O)N1CCN(c2nc(Oc3nn(C)c4c3CCN(C)C4)nc3c(Oc4c(Cl)c(F)cc5[nH]ncc45)nccc23)CC1 [Example 47I, 1-(4-{8-[(5-chloro-6-fluoro-1H-indazol-4-yl)oxy]-2-[(1,6-dimethyl-4,5,6,7-tetrahydro-1H-pyrazolo [3,4-c]pyridin-3-yl)oxy]pyrido [3,4-d]pyrimidin-4-yl}piperazin-1-yl)prop-2-en-1-one] | – | – | 14 | –
C=CC(=O)N1CCN(c2nc(Oc3cc4n(n3)CCN(C)C4)nc3c(Oc4c(Cl)c(F)cc5[nH]ncc45)nccc23)CC1 [Example 45I, 1-(4-{8-[(5-chloro-6-fluoro-1H-indazol-4-yl)oxy]-2-[(5-methyl-4,5,6,7-tetrahydro-pyrazolo [1,5-a]pyrazin-2-yl)oxy]pyrido [3,4-d]pyrimidin-4-yl}piperazin-1-yl)prop-2-en-1-one] | – | – | 7 | –
C=CC(=O)N1CCN(c2nc(O[C@@H]3CCN(C)C[C@H]3C)nc3c(Oc4c(Cl)c(F)cc5[nH]ncc45)nccc23)CC1 (racemic) [Example 29I, rac-1-[4-(8-[(5-chloro-6-fluoro-1H-indazol-4-yl)oxy]-2-{[(3R,4R)-1,3-dimethyl-piperidin-4-yl]oxy}pyrido [3,4-d]pyrimidin-4-yl)piperazin-1-yl]prop-2-en-1-one] | – | – | 16 | –
